10 molecules from patent publication US20230286948A1 (HUYABIO International, LLC, priority 2022, published 2023) can be followed below.

A word on the IC50: it is the concentration at which inhibition is half-maximal.

The structures appear in SMILES notation.

For the assay, the target named is MLL1-WDR5 protein-protein interaction (Homo sapiens (Human), UniProt P61964). Put plainly: WDR5 TR-FRET assay (MLL1-WDR5 PPI inhibition). The format is binding. The following applies: 5 nM WDR5 protein, 10 nM peptide, read-out: IC50 (nM), MLL1-WDR5 PPI inhibitory activity. The protocol:
WDR5 TR-FRET Assay Procedure: Stock compounds were transferred to the assay plate by Echo Liquid Handler. […] Stock compounds were incubated with WDR5 protein for 30 min at room temperature. Plates were covered, protected from light and incubated for 60 min at room temperature, after adding the peptide and Tb-Ab. EnVision Multimode Plate Reader (PerkinElmer) was used for the TR-FRET assay with excitation wavelength at 340 nm and emission wavelength at 495 and 520 nm. The ratio of the 520/495 wavelengths were used to assess the degree of the FRET signal. IC50 was calculated by fitting the inhibition data using XLfit software to sigmoidal dose-response model.
(In TR-FRET formats the signal depends on donor and acceptor labels being close together.)
Regarding `C[C@@H]1CN(c2ccc(-n3cc(C(=O)NCCCN4CCOCC4)nn3)cc2NC(=O)c2c[nH]c(=O)cc2C(F)(F)F)C[C@H](C)N1C` [Example 2, N-(5-(4-((3-morpholinopropyl)carbamoyl)-1H-1,2,3-triazol-1-yl)-2-((3S,5R)-3,4,5-trimethylpiperazin-1-yl)phenyl)-6-oxo-4-(trifluoromethyl)-1,6-dihydropyridine-3-carboxamide], the IC50 came out at 16.7 nM.
Then `CN1CCN(c2ccc(-n3cc(C(=O)NCCCN4CCOCC4)nn3)cc2NC(=O)c2cnc(Cl)cc2C(F)(F)F)CC1` [Example 3, 6-chloro-N-(2-(4-methylpiperazin-1-yl)-5-(4-((3-morpholinopropyl)carbamoyl)-1H-1,2,3-triazol-1-yl)phenyl)-4-(trifluoromethyl)nicotinamide], with over 10000 nM; and `CN1CCN(c2ccc(-n3cc(C(=O)NCCCN4CCOCC4)nn3)cc2NC(=O)c2c[nH]c(=O)cc2C(F)(F)F)CC1` [Example 4], with 51.3 nM.
The result for `C[C@@H]1CN(c2cc(F)c(-n3cc(C(=O)NCCCN4CCOCC4)nn3)cc2NC(=O)c2cnc(Cl)cc2C(F)(F)F)C[C@H](C)N1C` [Example 5, 6-chloro-N-(4-fluoro-5-(4-((3-morpholinopropyl)carbamoyl)-1H-1,2,3-triazol-1-yl)-2-((3S,5R)-3,4,5-trimethylpiperazin-1-yl)phenyl)-4-(trifluoromethyl)nicotinamide] reads 7270 nM; that for `C[C@@H]1CN(c2cc(F)c(-n3cc(C(=O)NCCCN4CCOCC4)nn3)cc2NC(=O)c2c[nH]c(=O)cc2C(F)(F)F)C[C@H](C)N1C` [Example 6, N-(4-fluoro-5-(4-((3-morpholinopropyl)carbamoyl)-1H-1,2,3-triazol-1-yl)-2-((3S,5R)-3,4,5-trimethylpiperazin-1-yl)phenyl)-6-oxo-4-(trifluoromethyl)-1,6-dihydropyridine-3-carboxamide], 7.23 nM.
Then `CN1CCN(c2cc(F)c(-n3cc(C(=O)NCCCN4CCOCC4)nn3)cc2NC(=O)c2cnc(Cl)cc2C(F)(F)F)CC1` [Example 7, 6-chloro-N-(4-fluoro-2-(4-methylpiperazin-1-yl)-5-(4-((3-morpholinopropyl)carbamoyl)-1H-1,2,3-triazol-1-yl)phenyl)-4-(trifluoromethyl)nicotinamide], with over 10000 nM; and `CN1CCN(c2cc(F)c(-n3cc(C(=O)NCCCN4CCOCC4)nn3)cc2NC(=O)c2c[nH]c(=O)cc2C(F)(F)F)CC1` [Example 8, N-(4-fluoro-2-(4-methylpiperazin-1-yl)-5-(4-((3-morpholinopropyl)carbamoyl)-1H-1,2,3-triazol-1-yl)phenyl)-6-oxo-4-(trifluoromethyl)-1,6-dihydropyridine-3-carboxamide], with 21.2 nM.
On to `C[C@H]1CN(c2ccc(-n3cc(C(=O)NCCCN4CCOCC4)nn3)cc2NC(=O)c2cnc(Cl)cc2C(F)(F)F)CCN1C` [Example 9, (S)-6-chloro-N-(2-(3,4-dimethylpiperazin-1-yl)-5-(4-((3-morpholinopropyl)carbamoyl)-1H-1,2,3-triazol-1-yl)phenyl)-4-(trifluoromethyl)nicotinamide], for which the half-maximal inhibitory concentration (IC50) is over 10000 nM.
Turning to `C[C@H]1CN(c2ccc(-n3cc(C(=O)NCCCN4CCOCC4)nn3)cc2NC(=O)c2c[nH]c(=O)cc2C(F)(F)F)CCN1C` [Example 10, (S)-N-(2-(3,4-dimethylpiperazin-1-yl)-5-(4-((3-morpholinopropyl)carbamoyl)-1H-1,2,3-triazol-1-yl)phenyl)-6-oxo-4-(trifluoromethyl)-1,6-dihydropyridine-3-carboxamide], the concentration for half-maximal inhibition (IC50) is 9.12 nM.
The result for `CN1CCN(c2ccc(-n3cc(C(=O)NCCCN4CCOCC4)nn3)cc2NC(=O)c2cnc(F)cc2C(F)(F)F)CC1` [Example 11, 6-fluoro-N-(2-(4-methylpiperazin-1-yl)-5-(4-((3-morpholinopropyl)carbamoyl)-1H-1,2,3-triazol-1-yl)phenyl)-4-(trifluoromethyl)nicotinamide] reads 4230 nM.
